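Interpolation was linear, between the two tested concentrations surrounding the appropriate level; five concentrations were tested over 48 hours in 96-well plates. The concentration for full growth arrest is given as TGI.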
Key:
Assay in all cases: NCI-60 cell line screen, 48 h
CCRF-CEM leukemia = test system: CCRF-CEM leukemia
SNB-78 CNS = test system: SNB-78 CNS
HCT-15 colon = test system: HCT-15 colon
IGROV1 ovarian = test system: IGROV1 ovarian
NCI-H522 lung = test system: NCI-H522 lung
HCT-116 colon = test system: HCT-116 colon
DMS 114 small cell lung = test system: DMS 114 small cell lung
M14 melanoma = test system: M14 melanoma
A549 NSCLC = test system: A549 NSCLC
RXF-631 renal = test system: RXF-631 renal
KM12 colon = test system: KM12 colon
SK-MEL-2 melanoma = test system: SK-MEL-2 melanoma
OVCAR-5 ovarian = test system: OVCAR-5 ovarian
SN12C renal = test system: SN12C renal
SF-295 CNS = test system: SF-295 CNS
UACC-62 melanoma = test system: UACC-62 melanoma
NCI-H23 lung = test system: NCI-H23 lung
NCI-H226 lung = test system: NCI-H226 lung
MALME-3M melanoma = test system: MALME-3M melanoma
DMS 273 small cell lung = test system: DMS 273 small cell lung
HCC-2998 colon = test system: HCC-2998 colon
SR leukemia = test system: SR leukemia
HOP-62 NSCLC = test system: HOP-62 NSCLC
RXF 393 renal = test system: RXF 393 renal
SK-MEL-28 melanoma = test system: SK-MEL-28 melanoma
U251 CNS = test system: U251 CNS
SK-OV-3 ovarian = test system: SK-OV-3 ovarian
HL-60(TB) leukemia = test system: HL-60(TB) leukemia
MOLT-4 leukemia = test system: MOLT-4 leukemia
OVCAR-3 ovarian = test system: OVCAR-3 ovarian
SF-539 CNS = test system: SF-539 CNS
SW-620 colon = test system: SW-620 colon
TK-10 renal = test system: TK-10 renal
OVCAR-4 ovarian = test system: OVCAR-4 ovarian
SNB-19 CNS = test system: SNB-19 CNS
NCI-H460 lung = test system: NCI-H460 lung
786-0 renal = test system: 786-0 renal
UO-31 renal = test system: UO-31 renal
UACC-257 melanoma = test system: UACC-257 melanoma
ACHN renal = test system: ACHN renal
A498 renal = test system: A498 renal
HT29 colon = test system: HT29 colon
OVCAR-8 ovarian = test system: OVCAR-8 ovarian
CAKI-1 renal = test system: CAKI-1 renal
K-562 leukemia = test system: K-562 leukemia
EKVX NSCLC = test system: EKVX NSCLC
M19-MEL melanoma = test system: M19-MEL melanoma
SF-268 CNS = test system: SF-268 CNS
SNB-75 CNS = test system: SNB-75 CNS
LOX IMVI melanoma = test system: LOX IMVI melanoma
LXFL 529 NSCLC = test system: LXFL 529 NSCLC
DLD-1 colon = test system: DLD-1 colon
COLO 205 colon = test system: COLO 205 colon
SK-MEL-5 melanoma = test system: SK-MEL-5 melanoma
RPMI-8226 leukemia = test system: RPMI-8226 leukemia
HOP-18 NSCLC = test system: HOP-18 NSCLC
KM20L2 colon = test system: KM20L2 colon
HOP-92 NSCLC = test system: HOP-92 NSCLC

Measured: TGI

CCOc1nc(OCC)nc(-c2cccn2-c2ccccc2)n1
97.1 µM: SK-MEL-2 melanoma
99.7 µM: SR leukemia
67.9 µM: UO-31 renal
60.6 µM: MALME-3M melanoma
48.6 µM: U251 CNS
86.8 µM: DMS 114 small cell lung
57.4 µM: MOLT-4 leukemia
89.2 µM: TK-10 renal
69.3 µM: OVCAR-3 ovarian
89.3 µM: IGROV1 ovarian
> 100 µM: CCRF-CEM leukemia | SNB-78 CNS | HCT-15 colon | NCI-H522 lung | HCT-116 colon | M14 melanoma | A549 NSCLC | RXF-631 renal | KM12 colon | OVCAR-5 ovarian | SN12C renal | SF-295 CNS | UACC-62 melanoma | NCI-H23 lung | NCI-H226 lung | DMS 273 small cell lung | HCC-2998 colon | HOP-62 NSCLC | RXF 393 renal | SK-MEL-28 melanoma | SF-539 CNS | SW-620 colon | OVCAR-4 ovarian | SNB-19 CNS | NCI-H460 lung | 786-0 renal | UACC-257 melanoma | ACHN renal | A498 renal | HT29 colon | OVCAR-8 ovarian | CAKI-1 renal | K-562 leukemia | EKVX NSCLC | M19-MEL melanoma | SF-268 CNS
82.5 µM: HL-60(TB) leukemia
75 µM: SK-OV-3 ovarian

COC(=O)C(C(=O)C(=O)Nc1nc2ccc([N+](=O)[O-])cc2s1)c1nc2ccc(Cl)cc2[nH]c1=O (stereo unspecified)
> 100 µM: CCRF-CEM leukemia | SNB-78 CNS | HCT-15 colon | IGROV1 ovarian | SNB-75 CNS | NCI-H522 lung | HCT-116 colon | DMS 114 small cell lung | M14 melanoma | A549 NSCLC | LOX IMVI melanoma | RXF-631 renal | KM12 colon | SK-MEL-2 melanoma | OVCAR-5 ovarian | SN12C renal | SF-295 CNS | LXFL 529 NSCLC | UACC-62 melanoma | NCI-H23 lung | NCI-H226 lung | MALME-3M melanoma | DMS 273 small cell lung | HCC-2998 colon | SR leukemia | DLD-1 colon | HOP-62 NSCLC | COLO 205 colon | RXF 393 renal | SK-MEL-28 melanoma | U251 CNS | SK-OV-3 ovarian | HL-60(TB) leukemia | MOLT-4 leukemia | OVCAR-3 ovarian | SK-MEL-5 melanoma | SF-539 CNS | SW-620 colon | TK-10 renal | OVCAR-4 ovarian | SNB-19 CNS | NCI-H460 lung | 786-0 renal | RPMI-8226 leukemia | UO-31 renal | HOP-18 NSCLC | UACC-257 melanoma | KM20L2 colon | ACHN renal | A498 renal | HT29 colon | OVCAR-8 ovarian | CAKI-1 renal | K-562 leukemia | EKVX NSCLC | M19-MEL melanoma | SF-268 CNS

O=C(O)C1(c2ccccc2)CCCNCC1 (stereo unspecified)
> 100 µM: HOP-92 NSCLC | CCRF-CEM leukemia | SNB-78 CNS | HCT-15 colon | IGROV1 ovarian | SNB-75 CNS | NCI-H522 lung | HCT-116 colon | DMS 114 small cell lung | M14 melanoma | A549 NSCLC | LOX IMVI melanoma | RXF-631 renal | KM12 colon | SK-MEL-2 melanoma | OVCAR-5 ovarian | SN12C renal | SF-295 CNS | LXFL 529 NSCLC | UACC-62 melanoma | NCI-H23 lung | NCI-H226 lung | MALME-3M melanoma | DMS 273 small cell lung | HCC-2998 colon | SR leukemia | DLD-1 colon | HOP-62 NSCLC | COLO 205 colon | RXF 393 renal | SK-MEL-28 melanoma | U251 CNS | SK-OV-3 ovarian | MOLT-4 leukemia | OVCAR-3 ovarian | SK-MEL-5 melanoma | SW-620 colon | TK-10 renal | OVCAR-4 ovarian | SNB-19 CNS | NCI-H460 lung | 786-0 renal | RPMI-8226 leukemia | UO-31 renal | HOP-18 NSCLC | UACC-257 melanoma | KM20L2 colon | ACHN renal | A498 renal | HT29 colon | OVCAR-8 ovarian | CAKI-1 renal | K-562 leukemia | EKVX NSCLC | M19-MEL melanoma | SF-268 CNS

CN(C)Cc1cc(/C(=C(\C#N)c2ccccc2)c2ccc(O)cc2)ccc1O
14 µM: RXF 393 renal
50.3 µM: OVCAR-3 ovarian
96.5 µM: HCT-15 colon
39.3 µM: MOLT-4 leukemia
37.2 µM: RXF-631 renal
73.7 µM: SW-620 colon
> 100 µM: A549 NSCLC | SNB-19 CNS | KM20L2 colon | A498 renal | EKVX NSCLC
59.6 µM: SN12C renal
79.4 µM: TK-10 renal
29.9 µM: UACC-257 melanoma
66.5 µM: HOP-18 NSCLC
33.4 µM: UACC-62 melanoma
40.4 µM: K-562 leukemia
44.8 µM: HT29 colon
63.6 µM: SNB-75 CNS
29.8 µM: MALME-3M melanoma
50.1 µM: U251 CNS
31.8 µM: SR leukemia
60.2 µM: UO-31 renal
36.4 µM: DMS 273 small cell lung
28.9 µM: SK-MEL-5 melanoma
72.4 µM: OVCAR-5 ovarian
26.8 µM: LOX IMVI melanoma | SK-MEL-28 melanoma
45.5 µM: CCRF-CEM leukemia
70.5 µM: OVCAR-4 ovarian
46.4 µM: RPMI-8226 leukemia
99.5 µM: IGROV1 ovarian
49.7 µM: SF-295 CNS
52.5 µM: NCI-H23 lung
56.9 µM: NCI-H226 lung
61 µM: KM12 colon
31.2 µM: M19-MEL melanoma
32.4 µM: HCC-2998 colon | ACHN renal
94.9 µM: SNB-78 CNS
60.3 µM: SF-268 CNS
26.1 µM: NCI-H522 lung
25.2 µM: HCT-116 colon
29.4 µM: DMS 114 small cell lung
48.5 µM: OVCAR-8 ovarian
23.1 µM: M14 melanoma
86.1 µM: DLD-1 colon
52.4 µM: HOP-92 NSCLC
85.5 µM: CAKI-1 renal
34.7 µM: LXFL 529 NSCLC
31.9 µM: COLO 205 colon
35.6 µM: 786-0 renal
48.9 µM: NCI-H460 lung
87.5 µM: SK-OV-3 ovarian
33.9 µM: SK-MEL-2 melanoma | HOP-62 NSCLC

O=C(OC1CC(n2cc(F)c(=O)[nH]c2=O)OC1CSC(=O)c1ccccc1)c1ccccc1 (stereo unspecified)
65.6 µM: SNB-75 CNS
97.4 µM: HOP-18 NSCLC
88.7 µM: COLO 205 colon
49.8 µM: U251 CNS
87 µM: NCI-H522 lung
75.2 µM: HCC-2998 colon
75.9 µM: NCI-H226 lung
> 100 µM: CCRF-CEM leukemia | SNB-78 CNS | HCT-15 colon | IGROV1 ovarian | HCT-116 colon | DMS 114 small cell lung | M14 melanoma | LOX IMVI melanoma | SK-MEL-2 melanoma | OVCAR-5 ovarian | SN12C renal | SF-295 CNS | LXFL 529 NSCLC | UACC-62 melanoma | NCI-H23 lung | DLD-1 colon | HOP-62 NSCLC | SK-MEL-28 melanoma | SK-OV-3 ovarian | SF-539 CNS | SW-620 colon | TK-10 renal | OVCAR-4 ovarian | SNB-19 CNS | NCI-H460 lung | 786-0 renal | UO-31 renal | ACHN renal | A498 renal | OVCAR-8 ovarian | K-562 leukemia
91.2 µM: KM12 colon
81.1 µM: RXF 393 renal | MOLT-4 leukemia
68.8 µM: SF-268 CNS
34.4 µM: HT29 colon
33.9 µM: KM20L2 colon
92.4 µM: A549 NSCLC
87.6 µM: UACC-257 melanoma
84.5 µM: MALME-3M melanoma
90.5 µM: EKVX NSCLC
40.3 µM: RXF-631 renal
57.4 µM: RPMI-8226 leukemia
67 µM: M19-MEL melanoma
53.3 µM: HL-60(TB) leukemia | OVCAR-3 ovarian
56 µM: HOP-92 NSCLC
